Values of other authors in patent US20090239845A1, “PYRAZOLE COMPOUNDS AS PROSTAGLANDIN RECEPTORS LIGANDS” (priority 2005, published 2009).

Key:
[1] = test system: gastric lesions induced by taurocholate acid, aspirin or indomethacin; conditions: rats, J Pharmacol Exp Ther 1992, 263(1), 374-380; cited from earlier work
[2] = test system: rat model of chronic constriction injury; conditions: Anesthesia and Analgesia 2001, 93, 1012-7; cited from earlier work
[3] = test system: rodent model of post-operative pain; conditions: Anesthesia and Analgesia 2001, 92, 233-238; cited from earlier work

Row | SMILES | gastric lesions [1] | hyperalgesia and allodynia [2] | mechanical hyperalgesia [3]
1 | O=C(O)Cc1ccc(CCNS(=O)(=O)c2ccc(Cl)cc2)cc1 [BM 13505] | inhibit gastric lesions | – | –
2 | Cc1cc(Cl)ccc1S(=O)(=O)NC[C@H]1C2CCC(CC2)[C@@H]1/C=C\CCCC(=O)O [ONO-8711] | – | reduces hyperalgesia and allodynia | inhibits mechanical hyperalgesia
3 | O=C(O)CCc1ccccc1CC1C2CCC(O2)C1c1nc(C(=O)NCCCCC2CCCCC2)co1 (stereo not shown) [SQ 33961] | inhibit gastric lesions | – | –
